Measurements: patent US20060210614A1, “Method of treatment of a metabolic disease using intranasal administration of exendin peptide” (Nastech Pharmaceutical Company Inc., priority 2003, published 2006)
Read-outs that look alike come from different tables or passages of the source.

Columns and labels:
[1] = Physical stability (clarity, absorbance at 630 nm) after storage at 5° C.
Experimental: In vitro optimization of the exenatide formulation included a preservatives screen. Physical stability after storage at 5° C. was measured for all formulations tested in vitro. Exenatide formulations were placed in 1 cc glass vials and closed with trifoil lined caps and stored at 5° C. for at least two weeks. Physical stability was monitored by measuring clarity. Clarity of a formulation was determined by measuring absorbance at 630 nm, using the μQuant optical density plate reader for each formulation at days 0, 7, and 14. A 200 μL volume from each vial was placed in a 96-well plate and read against a background of water.
Varying concentrations of sodium benzoate (NaBenz) and benzalkonium chloride (BAK), were screened for their effect on physical stability of the three formulations used in in vivo studies. Sodium benzoate was added at […], while BAK was tested at 0.2, 1.0, 2.0, and 4.0 mg/mL. To prepare the samples, varying amounts of stock solutions of the two preservatives were added to the three prepared formulations dosed in the PK study. […] The resulting formulations were stored at 5° C. for 5.5 weeks. Physical stability was monitored by measuring the absorbance of the solution at 630 nm.
Sodium benzoate was added at concentrations of 1.0 to 5.0 mg/mL, while BAK was tested at 0.05, 0.075, and 0.1 mg/mL. To prepare the samples, varying amounts of stock solutions of the two preservatives were added to the formulations prepared in the PK study and the pH was adjusted to 4.5 with HCl as necessary. The resulting formulations were stored at 5° C. for 4 weeks. Physical stability was monitored by measuring the absorbance of the solution at 630 nm.

[2] = tested on: normal, human-derived tracheal/bronchial epithelial cells (EpiAirway™ Tissue Model); conditions: exenatide formulation containing the excipient; LDH and MTT
Experimental: The amount of cell death was assayed by measuring the loss of lactate dehydrogenase (LDH) from the cells using a CytoTox 96 Cytoxicity Assay Kit (Promega Corp., Madison, Wis.). Fresh, cell-free culture medium was used as a blank. 50 μl harvested media (stored at 4° C.) was loaded in a 96-well plate. Substrate Solution (50 μl) was added to each well and the plates were incubated for thirty (30) minutes at ambient temperature in the dark. Following incubation, 50 μl of Stop Solution was added to each well and the reaction was monitored at A490 using an optical density plate reader. Media alone applied to the apical side served as a negative control while triton X served as the positive control for the LDH assay.
The optical density of the samples was measured at A550 on an optical density plate reader (Molecular Devices, Palo Alto, Calif.). Media alone applied to the apical side served as a […] for the MTT assay.
A second round of studies, series B, systematically screened several excipients for their potential to enhance exenatide permeation to a greater degree than the Me-β-CD, DDPC, EDTA, and gelatin combinations. […] As with series A formulations, each formulation was evaluated for exenatide permeation, ability to reduce TER while not adversely affecting cell viability, and formulation physical stability.

[3] = tested on: epithelial tissue barrier (EpiAirway™ Tissue Model); assay: In vitro permeation of Fluorescein-Exendin-4 across the cellular barrier; conditions: for Fold increase in exenatide permeation over AKL-225-126-2: one hour incubation, full dose volume
Description: A standard curve was generated over the relevant quantitation range. […] Initial studies focused on optimizing the concentrations of Me-β-CD, DDPC, EDTA and gelatin to enhance exenatide permeation across an epithelial tissue layer.

aminopeptidases = conditions: cited from earlier work
[4] = aqueous solution at physiologic pH; cited from earlier work
[5] = tested on: normal, human-derived tracheal/bronchial epithelial cells (EpiAirway™ Tissue Model); assay: Transepithelial Electrical Resistance (TER) measurements using an in vitro nasal epithelial model; type: cell-based; conditions: 60 minute exposure
Description: The cell line MatTek Corp. (Ashland, Mass.) was used as the source of normal, human-derived tracheal/bronchial epithelial cells (EpiAirway™ Tissue Model). The cells are highly differentiated and retain all the properties of respiratory epithelial tissue. The cells were provided as inserts grown to confluence on Millipore Milicell-CM filters comprised of transparent hydrophilic Teflon (PTFE). […] TER measurements were accomplished using the Endohm-12 Tissue Resistance Measurement Chamber connected to the EVOM Epithelial Voltohmmeter (World Precision Instruments, Sarasota, Fla.) with the electrode leads. The electrodes and a tissue culture blank insert were equilibrated for at least twenty (20) minutes in phosphate buffered solution with the power off prior to checking calibration. The background resistance was measured with 1.5 mL media in the Endohm tissue chamber and 300 μL media in a blank Millicell-CM insert. […] The background resistance of the blank insert was 5-12 ohms.
TER was measured before and after the sixty (60) minute incubation. […] After the 60 minute incubation with test samples, 200 μL of fresh media was gently added to the apical surface of each test sample insert and final TER was measured for each insert. […] Resistance is expressed as follows: (resistance measured−blank)×0.6 cm^2.

[6] = anesthetized rats, cited from earlier work
[7] = 5° C. (refrigerated), at least two weeks, absorbance at 630 nm

Compound	Physical stability / clarity (in words) [1, 7]	Toxicity / cell viability (in words) [2]	further results
CCCCCCCCCCCCCCCC(=O)OC(CC(=O)[O-])C[N+](C)(C)C (racemic) [Palmitoyl-DL-carnitine, palmitoyl-DL-carnitine]	physically instable without Me-β-CD	toxic at high concentrations	–
Dodecanoylsucrose	–	toxic at 10 mg/mL	Fold increase in exenatide permeation over AKL-225-126-2 [3]: not more than 1.5 fold
CC(C)CC(N)B(O)O (stereo not drawn) [boro-leucine]	–	–	Times more effective in enzyme inhibition than bestatin (aminopeptidases): more than 100 times; Times more effective in enzyme inhibition than puromycin (aminopeptidases): more than 1000 times
CCCCCCCCCC(=O)[O-].[Na+] [sodium caprate]	physical instability in the absence of Me-β-CD	low cell viability at 50 mM alone	–
OC[C@H]1O[C@@H]2O[C@H]3[C@H](O)[C@@H](O)[C@@H](O[C@H]4[C@H](O)[C@@H](O)[C@@H](O[C@H]5[C@H](O)[C@@H](O)[C@@H](O[C@H]6[C@H](O)[C@@H](O)[C@@H](O[C@H]7[C@H](O)[C@@H](O)[C@@H](O[C@H]8[C@H](O)[C@@H](O)[C@@H](O[C@H]1[C@H](O)[C@H]2O)O[C@@H]8CO)O[C@@H]7CO)O[C@@H]6CO)O[C@@H]5CO)O[C@@H]4CO)O[C@@H]3CO [β-cyclodextrin]	became turbid at refrigerated conditions	–	–
CCCCCCCCO[C@@H]1O[C@H](CO)[C@@H](O[C@H]2O[C@H](CO)[C@@H](O)[C@H](O)[C@H]2O)[C@H](O)[C@H]1O [n-octyl-β-D-maltopyranoside, n-Octyl-β-D-maltopyranoside]	–	–	Fold increase in exenatide permeation over AKL-225-126-2 [3]: not more than 1.5 fold
hydroxypropyl-β-cyclodextrin [HP-β-CD]	–	–	Exenatide permeation across the tissue barrier (in words) ([3]; excipient screen, compared with AKL-225-126-2 or control without enhancers): did not increase permeation significantly
CCCCCCCC(=O)[O-].[Na+] [sodium caprylate]	physical instability in the absence of Me-β-CD	toxic at 20 mM with Me-β-CD and EDTA	–
CCCCCCCCC(=O)OC[C@H](COP(=O)([O-])OCC[N+](C)(C)C)OC(=O)CCCCCCCC [dinonanoyl glycero phosphatidylcholine, Di Nonanoyl Glycero Phosphatidylcholine (9:0)]	becoming turbid in less than two weeks at refrigerated conditions	–	–
NCCN(CCN)/[N+]([O-])=N/O [diethylenetriamine/NO]	–	–	Rate (time) of NO release [4]: approximately 20 hours
CCCCCCCCCCCCC[N+](C)(C)Cc1ccccc1 [benzalkonium chloride (BAK), benzalkonium chloride]	–	decreasing cell viability with increasing BAK concentration	Physical stability / clarity (in words) [1]: remained physically stable for two weeks at 5 °C
triton X	–	–	Effect on TER (in words) [5]: lowest possible TER
CCCCCCCC/C=C\CCCCCCCC(=O)O [oleic acid]	–	3 mg/mL oleic acid resulted in lowered cell viability	–
dimethyl-β-cyclodextrin [DMe-β-CD]	–	more toxic to the cells than Me-β-CD	Fold increase in exenatide permeation over AKL-225-126-2 [3]: 1.5 fold
O=C([O-])c1ccccc1.[Na+] [sodium benzoate]	2 mg/mL of more sodium benzoate became turbid within 14 days at 5 °C	–	–
CCCCCCCCO[C@@H]1O[C@H](CO)[C@H](O)[C@H](O)[C@H]1O [galactopyranoside, n-Octyl-β-D-galactopyranoside]	–	toxic at 10 mg/mL	–
CCCCCCCCO[C@H]1O[C@H](CO)[C@@H](O)[C@H](O)[C@H]1O [Octyl-α-glucopyranoside]	–	–	Fold increase in exenatide permeation over AKL-225-126-2 [3]: not more than 1.5 fold
human growth hormone: human growth hormone given nasally to anesthetized rats, without and with N-acetyl-L-cysteine	–	–	Nasal bioavailability of human growth hormone ([6]; with N-acetyl-L-cysteine (ACS)): 12.2%; Nasal bioavailability of human growth hormone ([6]; without N-acetyl-L-cysteine): 7.5%
CCCCCCCC/C=C\CCCCCCCC(=O)OCCOCC(OCCO)C1OCC(OCCO)C1OCCO (stereo not drawn) [Tween-80]	–	–	Exenatide permeation across the tissue barrier (in words) ([3]; human, 1 h): failed to enhance exenatide permeation to the same extent as formulation AKL-225-126-2
C[C@H](CCC(=O)NCC(=O)[O-])[C@H]1CC[C@H]2[C@@H]3[C@H](O)C[C@@H]4C[C@H](O)CC[C@]4(C)[C@H]3C[C@H](O)[C@]12C.[Na+] [Sodium glycocholate, sodium glycocholate]	physically instable at high concentrations	–	–
CCN(CC)/[N+]([O-])=N/O.CCNCC [diethylamine/NO]	–	–	Rate (time) of NO release [4]: < 3 min
O=C(O)CN(CCN(CC(=O)O)CC(=O)O)CC(=O)O [EDTA, ethylene diamine tetraacetic acid]	–	at 10 mg/mL EDTA, cell viability began to decrease	–
